For experiment [1], the system named is T1, HCN channel (hyperpolarization-activated cation current, Ih, in GH3 cells).
T1 construct: gene Hcn2; native whole-cell current in GH3 pituitary cells; homo- or mixed HCN2+HCN3; PDB 5V4S is only a docking model
Put plainly: whole-cell patch clamp. In kind it is cell-based. To be noted: Ih at end of 2-s step from -40 to -110 mV; Ca2+-free Tyrode with 1 μM TTX; pH 7.4; 20-25 °C; native GH3 cells.

The subject of experiment [2] is T2, voltage-gated Na^+ (NaV) channels (INa in GH3 cells).
T2 construct: gene Scn1a; native whole-cell current in GH3 pituitary cells; hNaV1.7 only docked
The experiment can be described thus: whole-cell patch clamp. It is filed as cell-based. As to conditions: transient (peak) INa(T); 30-ms step from -100 to -10 mV; Ca2+-free Tyrode, 10 mM TEA, 0.5 mM CdCl2; pH 7.4; 20-25 °C; native GH3 cells.

For the compound `NC(=O)OC[C@@H](O)c1ccccc1Cl` [CRS, [(2S)-2-(2-chlorophenyl)-2-hydroxyethyl] carbamate], the IC50 in experiment [1] came out at 38 µM; in experiment [2], 56.4 µM.

The values are drawn from paper PMC10244622, “Concerted suppressive effects of carisbamate, an anti-epileptic alkyl-carbamate drug, on voltage-gated Na^+ and hyperpolarization-activated cation currents” (Frontiers in Cellular Neuroscience, 2023).
